The test system of assay [1] is FADD-deficient variant of human Jurkat T cells treated with TNF-α. As to conditions: SAR study of Teng et al. 2005, relative to Nec-1; cited from earlier work.
In assay [2] the test system is atherosclerotic lesions in ApoE−/− mice. As to the kind of experiment: Ex vivo autoradiography of aorta, en face and Oil Red O comparison. The class given is in vivo, mouse. As to conditions: ApoE−/− mice, ˜1 mCi of tracer, 2 hr post injection. An excerpt:
Radiochemistry and ex vivo autoradiography study with ApoE^−/− mice. The tracer ^123I-Nec-1 (7-^123I-Nec-1) was synthesized by a Cu(I) catalyzed direct halogen exchange reaction with the precursor 7-Br-Nec-1 and Na^123I. Eight week-old female apolipoprotein E knockout (Apo E^−/−) mice were purchased from Charles River Laboratories and fed either a chow or western diet (TD.10885, Harlan Laboratories) for 2 months (total n=6 mice). 7-^123I-O-Nec-1 (37.0-55.5 MBq) was administrated intravenously into the mice under anesthetic. After 2 hr, the mice were euthanized and perfused with PBS followed by 10% formalin via left ventricle cannulation. Aorta was dissected from heart at the base using a dissecting microscope following removal of surrounding fat and connective tissue. En face specimens were immediately exposed to super resolution phosphor screens in an autoradiography cassette. After overnight exposure at room temperature, the screens were scanned with a Cyclone Phosphor Imager (Perkin Elmer, Downers Grove, Ill.). Images were analyzed using OptiQuant™ 5.0 software. The regions of interest (ROI) were drawn around the lesions on the aortic arch, and the counts in Digital Light Unit (DLU) and surface areas in mm^2 were measured. The DLU was converted to activity in μCi using a set of calibration standards with known activities, which were exposed and scanned on the same screen used for the aorta samples, as previously described (Zhao et al, 2007; Matter et al., 2006). The percentage injected dose (% ID) was calculated from dividing the activity (pCi) of the lesion by the injected activity. Activity density in % ID/m^2 was calculated and normalized by animal body weight to get % ID×kg/m^2. The areas of the lesions and the whole aortic arch in mm^2 were also recorded using the OptiQuant™ 5.0 software, and the percentage of lesion within the area of the aorta vessel wall was calculated.
Ex vivo autoradiography study with ApoE^−/− mice. Eight week-old female apolipoprotein E knockout (Apo E^−/−) mice were purchased from Charles River Laboratories (Charles River, Canada) and fed either a chow or western diet (TD.10885, Harlan Laboratories) for 2 months (n=3 per group). […] 7-^123I-O-Nec-1 (37.0-55.5 MBq) was administrated intravenously into the mice under anesthetic. After 2 hr, the mice were euthanized in a CO2 chamber. Using a Gilson Minipuls 2 peristaltic pump, the mice were perfused with 20 mL phosphate buffered saline (PBS) followed by 10 mL of 10% formalin via left ventricle cannulation. Perfusate was drained from a cut within the right atrium. Aorta was dissected from heart at the base using a dissecting microscope following removal of surrounding fat and connective tissue. For en face experiments aortic tissues were flattened by a longitudinal cut through one side of the aortic wall cutting through the carotids and the innominant artery until the aorta was split forming a Y-shaped structure.
The uptake and distribution of the tracer on aortic tissue was studied using digital autoradiography method. En face specimens were immediately exposed to super resolution phosphor screens in a Fisher Biotech autoradiography cassette. After overnight exposure at room temperature, the screens were scanned with a Cyclone Phosphor Imager (Perkin Elmer, Downers Grove, Ill.). Images were analyzed using OptiQuant™ 5.0 software. The regions of interest (ROI) were drawn around the lesions on the aortic arch, and the counts in Digital Light Unit (DLU) and surface areas in mm^2 were measured. The DLU was converted to activity in pCi using a set of calibration standards with known activities, which were exposed and scanned on the same screen used for the aorta samples. The percentage injected dose (% ID) was calculated from dividing the activity (pCi) of the lesion by the injected activity. Activity density in % ID/m^2 was calculated and normalized by animal body weight to get % ID×kg/m^2. […]

Assay [3] concerns ApoE−/− mice with established atherosclerosis. As to the kind of experiment: Atherosclerosis study: time-release pellets in Western diet fed ApoE−/− mice. Type of assay: in vivo, mouse. The method, then: Atherosclerosis Studies. All animal experiments were performed in accordance with the Animal Care and Use Committee, University of Ottawa, Canada. Eight week old Apo E^−/− mice (total n=17 mice) were fed an adjusted calories diet (21% fat; 0.2% cholesterol, Harlan Teklad) for 4 weeks to induce atherosclerotic progression. Mice were then injected with time-release placebo or Nec-1s tablets (2 mg/kg/day), which were synthesized by Innovative Research of America, USA. Mice were euthanized after 6 weeks of treatment, perfused with saline and aortic roots were embedded in OCT medium and frozen. Aortic roots were sectioned (10 μm) and stained with hematoxylin and eosin for lesion area and necrotic core quantification, and a minimum of 10 sections per animal were measured across the length of the entire aortic root. For en face aortic lesion quantifications, aortas were dissected removing all branching vessels down to the femoral bifurcation and then sliced ventrally and images of aortas were digitally captured using ImagePro™. Lesion areas within the entire length of the aorta were quantified using Image J™ and expressed relative to the total aortic surface area. Immunohistochemistry for vascular smooth muscle cells was performed using a primary antibody for a-smooth muscle actin (monoclonal, Sigma) conjugated to alkaline phosphatase and visualized using SigmaFAST Red (Sigma). Statistical significance between the two groups were analyzed using Students' t-test (p<0.05).
Atherosclerosis Studies. All animal experiments were performed in accordance with the Animal Care and Use Committee, University of Ottawa, Canada. Eight week old apoE−/− mice (total n=17 mice) were fed an adjusted calories diet (21% fat; 0.2% cholesterol, Harlan Teklad) for 4 weeks to induce atherosclerotic progression. Mice were then injected with time-release placebo or stable Necrostatin-1 (Nec-1)15 tablets (2 mg/kg/day), which were synthesized by Innovative Research of America, USA. Mice were euthanized after 6 weeks of treatment, perfused with saline and aortic roots were embedded in OCT medium and frozen. Aortic roots were sectioned (10 μm) and stained with hematoxylin and eosin for lesion area and necrotic core quantification, and a minimum of 10 sections per animal were measured across the length of the entire aortic root. For en face aortic lesion quantifications, aortas were dissected removing all branching vessels down to the femoral bifurcation and then sliced ventrally and images of aortas were digitally captured using ImageProTM. Lesion areas within the entire length of the aorta were quantified using Image JTM and expressed relative to the total aortic surface area. Immunohistochemistry to visualize macrophages and smooth muscle cells was performed using primary antibodies to CD68 (rat monoclonal, Serotec) or phosho-MLKL (rabbit polyclonal, Abcam) with a secondary conjugated to biotin and α-smooth muscle actin (monoclonal, Sigma) conjugated to alkaline phosphatase and visualized using DAB or SigmaFAST Red (Sigma), respectively. Image J was used to quantify positive staining area and statistical significance between the two groups were analyzed using Students' t-test (p<0.05)

The test system of assay [4] is bone-marrow-derived macrophages (BMDMs). Type of assay: cell-based. As to conditions: BMDMs. On the procedure: (§1) Bone-marrow derived macrophages. Bone-marrow derived macrophages (BMDMs) were isolated from femurs of adult VVT or Rip3^−/− mice and differentiated into macrophages using DMEM supplemented with 10% FBS and 1% penicillin-streptomycin plus either 20% L929 conditioned media or 20 ng/mL mouse M-CSF for 7-10 days. To polarize macrophages to M1 or M2, BMDMs were incubated on day 7 with 1 μg/mL LPS and 100 ng/mL IFNγ or 10 ng/mL IL-4 respectively for 24 h. Damage Associated Molecular Patterns (DAMPs) were obtained by subjecting BMDMs to 3×30 min freeze-thaw cycle or treatment with 100 ng/mL LPS and 50 μM zVAD.fmk for 24 hours, after which the media was collected and added to naïve cells at indicated ratios.
(§2) Cell viability assays. Cell death was determined by measuring lactate dehydrogenase (LDH) release into the media. Briefly, cells were treated with 100 μg/ml oxLDL in the presence or absence of 25 μM zVAD.fmk or 50 μM necrostatin-1 (Nec-1) for 24 hours and media was collected and centrifuged to pellet cell debris. The amount of LDH in media was measured in a kinetic assay by adding PBS containing 0.02% NADH and 0.03% sodium pyruvate and measuring absorbance at 340 nm for 10 minutes at 1 minute intervals. The slope of the curve provides a measure of cell death, which was expressed as fold change relative to control.
as §1, with “Rip3−/−” for “Rip3^−/−”
as §2, with “ug/ml” for “μg/ml”, “uM” for “μM”

Read-outs that look alike come from different tables or passages of the source. Residues, ends and D or L forms follow the SMILES beside them. *: point of attachment. Cbz = O=C(OCc1ccccc1)*; CH2F = FC*

Take `CN1C(=O)C(Cc2c[nH]c3c(Cl)cccc23)NC1=S` (centres unmarked) [7-Cl-Nec-1]: the “necroptosis inhibitory activity (in words)” value in assay [1] is “increased activity”.
As to `COc1ccc([C@@H]2[C@@H]3CCc4ccc([123I])cc4C3=NN2C(C)=O)cc1` [8-^123I-Nec-3R], in assay [2], the “uptake in atherosclerotic lesions by autoradiography (in words)” value is recorded as “significant lesion uptake”.
Turning to `O=C1NC(=S)NC1Cc1c[nH]c2ccccc12` (centres unmarked) [Nec-1i], the “necroptosis inhibitory activity (in words)” value in assay [1] is “completely abolished”.
`CN1C(=O)NC(Cc2c[nH]c3c(Cl)cccc23)C1=O` (centres unmarked) [Nec-1s]: in assay [3] (Western diet 4 weeks then 2 mg/kg/day for 6 weeks), the “atherosclerotic lesion area versus placebo (in words)” value is reported as “reduced en face lesion areas”. In addition, in assay [3] (aortic sinus, 2 mg/kg/day, 6 weeks), the “reduction of lesion necrotic core area compared to placebo” value stood at 62%.
In the case of `COC(=O)C[C@H](NC(=O)[C@H](C)NC(=O)[C@@H](NC(=O)OCc1ccccc1)C(C)C)C(=O)CF` [zVAD.fmk] (Cbz-Val-Ala-Asp(OMe)-CH2F), the “cell death (LDH release), fold change relative to control” value in assay [4] (100 μg/mL oxLDL + 25 μM zVAD.fmk, 24 h, mean±SEM) was determined as 5.7±0.7 fold. Further, the “effect on cell death in response to oxLDL (in words)” value in assay [4] (oxLDL + pan caspase inhibitor zVAD.fmk 25 μM, 24 h) is “significantly enhanced cell death”.
`COC(=O)C[C@H](NC(=O)[C@H](C)NC(=O)[C@@H](NC(=O)[C@H](Cc1ccc(O)cc1)NC(=O)OCc1ccccc1)C(C)C)C(=O)CF` [zYVAD.fmk]: the “effect on cell death in response to oxLDL (in words)” value in assay [4] (co-treatment with caspase-1 inhibitor zYVAD.fmk 20 uM) is “did not reduce or prevent cell death”.

Values taken from patent publication US20160324992A1, “IDENTIFICATION AND TREATMENT OF VULNERABLE PLAQUES” (OTTAWA HEART INSTITUTE RESEARCH CORPORATION, priority 2015, published 2016).
